Data reported in the NIST ThermoML archive (doi:10.1021/je034225b).
± gives the expanded uncertainty stated by the source.

How the values were obtained:
[1] = xn = mol fraction of the nth substance listed; settings: for surface tension liquid-gas: 297 K; for mass density: 100 kPa, Liquid, Pycnometric method
[2] = 297 K

`O=S(=O)(O)O` [sulfuric acid] + O showed a surface tension liquid-gas ([1]; x1 = 0.001) of 71.6 ± 2.9 mN/m, a surface tension liquid-gas ([1]; x1 = 0.003) of 71.4 ± 2.9 mN/m and a surface tension liquid-gas ([1]; x1 = 0.006) of 71.2 ± 2.8 mN/m. It also gave a surface tension liquid-gas ([1]; x1 = 0.008) of 71.9 ± 2.9 mN/m, a surface tension liquid-gas ([1]; x1 = 0.026) of 72.4 ± 2.9 mN/m and a surface tension liquid-gas ([1]; x1 = 0.052) of 73.1 ± 2.9 mN/m. For the same compound, the surface tension liquid-gas ([1]; x1 = 0.09) was 74 ± 3 mN/m, the surface tension liquid-gas ([1]; x1 = 0.125) was 74.7 ± 3 mN/m and the surface tension liquid-gas ([1]; x1 = 0.18) was 75.2 ± 3 mN/m. The surface tension liquid-gas ([1]; x1 = 0.25) was 73.6 ± 3 mN/m, the surface tension liquid-gas ([1]; x1 = 0.35) was 72.3 ± 2.9 mN/m and the surface tension liquid-gas ([1]; x1 = 0.48) was 69.4 ± 2.9 mN/m. For the same compound, the mass density ([1]; 298.15 K, x1 = 0.001) was 998 ± 10 kg/m3, the mass density ([1]; 298.15 K, x1 = 0.003) was 1005 ± 10 kg/m3 and the mass density ([1]; 298.15 K, x1 = 0.006) was 1017 ± 10 kg/m3. The mass density ([1]; 298.15 K, x1 = 0.008) was 1024 ± 10 kg/m3, the mass density ([1]; 298.15 K, x1 = 0.026) was 1085 ± 11 kg/m3 and the mass density ([1]; 298.15 K, x1 = 0.052) was 1156 ± 12 kg/m3. For the same compound, the mass density ([1]; 298.15 K, x1 = 0.09) was 1253 ± 13 kg/m3, the mass density ([1]; 298.15 K, x1 = 0.125) was 1328 ± 13 kg/m3 and the mass density ([1]; 298.15 K, x1 = 0.18) was 1422 ± 14 kg/m3. For the same compound, the mass density ([1]; 298.15 K, x1 = 0.25) was 1528 ± 15 kg/m3, the mass density ([1]; 298.15 K, x1 = 0.35) was 1622 ± 16 kg/m3 and the mass density ([1]; 298.15 K, x1 = 0.48) was 1725 ± 17 kg/m3. The mass density ([1]; 571.15 K, x1 = 0.003) was 1005 ± 20 kg/m3.
Compound `CNC` [dimethylamine] + O has a surface tension liquid-gas ([1]; x1 = 0.002) of 68.4 ± 2.7 mN/m, a surface tension liquid-gas ([1]; x1 = 0.003) of 65.7 ± 2.6 mN/m and a surface tension liquid-gas ([1]; x1 = 0.004) of 65.8 ± 2.6 mN/m. It also gave a surface tension liquid-gas ([1]; x1 = 0.006) of 64.7 ± 2.6 mN/m, a surface tension liquid-gas ([1]; x1 = 0.008) of 62.8 ± 2.5 mN/m and a surface tension liquid-gas ([1]; x1 = 0.01) of 61.8 ± 2.5 mN/m. It also gave a surface tension liquid-gas ([1]; x1 = 0.013) of 60.4 ± 2.4 mN/m, a surface tension liquid-gas ([1]; x1 = 0.016) of 58.4 ± 2.3 mN/m and a surface tension liquid-gas ([1]; x1 = 0.025) of 56.1 ± 2.2 mN/m. The surface tension liquid-gas ([1]; x1 = 0.034) was 53.2 ± 2.1 mN/m, the surface tension liquid-gas ([1]; x1 = 0.043) was 51 ± 2 mN/m and the surface tension liquid-gas ([1]; x1 = 0.052) was 49.1 ± 2 mN/m. The surface tension liquid-gas ([1]; x1 = 0.061) was 48.1 ± 1.9 mN/m, the surface tension liquid-gas ([1]; x1 = 0.071) was 47.8 ± 1.9 mN/m and the surface tension liquid-gas ([1]; x1 = 0.091) was 42.4 ± 1.7 mN/m. For the same compound, the surface tension liquid-gas ([1]; x1 = 0.112) was 40.4 ± 1.6 mN/m, the surface tension liquid-gas ([1]; x1 = 0.135) was 38.9 ± 1.6 mN/m and the surface tension liquid-gas ([1]; x1 = 0.158) was 36.8 ± 1.5 mN/m. It also gave a surface tension liquid-gas ([1]; x1 = 0.184) of 35.3 ± 1.4 mN/m, a surface tension liquid-gas ([1]; x1 = 0.21) of 33.7 ± 1.4 mN/m and a mass density ([1]; 298.15 K, x1 = 0.001) of 998 ± 10 kg/m3. The mass density ([1]; 298.15 K, x1 = 0.002) was 994 ± 10 kg/m3, the mass density ([1]; 298.15 K, x1 = 0.004) was 988 ± 10 kg/m3 and the mass density ([1]; 298.15 K, x1 = 0.008) was 987 ± 10 kg/m3. For the same compound, the mass density ([1]; 298.15 K, x1 = 0.016) was 984 ± 10 kg/m3, the mass density ([1]; 298.15 K, x1 = 0.025) was 974 ± 10 kg/m3 and the mass density ([1]; 298.15 K, x1 = 0.034) was 969 ± 10 kg/m3. For the same compound, the mass density ([1]; 298.15 K, x1 = 0.043) was 967 ± 10 kg/m3, the mass density ([1]; 298.15 K, x1 = 0.091) was 941 ± 9 kg/m3 and the mass density ([1]; 298.15 K, x1 = 0.146) was 918 ± 9 kg/m3. For the same compound, the mass density ([1]; 298.15 K, x1 = 0.21) was 888 ± 9 kg/m3.
For `O` [water], the surface tension liquid-gas [2] was 70.4 ± 2.8 mN/m.
